Measurements from the supplement of paper PMC10627819.

How the values were obtained:
S. aureus DSM 20231 = assay: Bliss interaction score (quartile over a dose matrix) (fitness difference); higher = more antagonism (negative = synergy)
In short: (§1)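 Fitness was OD595 at entry into stationary phase divided by the plate's robust no-drug mean and capped at 1; single-drug fitness was inferred from combination data. The Bliss score is observed minus expected (product) fitness, summarised by quartiles over technical, biological and donor/recipient replicates.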

B. subtilis 168 = assay: as above
In short: as §1

S. aureus Newman = assay: as above
In short: as §1

S. pneumoniae D39V [1] = assay: as above
In short: as §1

S. pneumoniae D39V [2] = assay: fitness (endpoint OD595 vs no drug) (fraction); higher = more growth
In short: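 At 37 °C, bacteria in TSB, LB Lennox or CY were grown in 384-well plates from a starting OD595 of 0.01. OD595 was measured every 30 min for 14 h, with the first reading used as background. Fitness is the optical density at the switch to stationary phase as a fraction of the robust mean of no-drug control wells, capped at 1.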

[3] = first compound 0.005 µg/mL, partner 1.073 µg/mL
[4] = first compound 0.005 µg/mL, partner 2.145 µg/mL
[5] = first compound 0.005 µg/mL, partner 4.29 µg/mL
[6] = first compound 0.0065 µg/mL, partner 1.25 µg/mL
[7] = first compound 0.0065 µg/mL, partner 2.5 µg/mL
[8] = first compound 0.0065 µg/mL, partner 5 µg/mL
[9] = first compound 0.01 µg/mL, partner 1.073 µg/mL
[10] = first compound 0.01 µg/mL, partner 2.145 µg/mL
[11] = first compound 0.01 µg/mL, partner 4.29 µg/mL
[12] = first compound 0.013 µg/mL, partner 1.25 µg/mL
[13] = first compound 0.013 µg/mL, partner 2.5 µg/mL
[14] = first compound 0.013 µg/mL, partner 5 µg/mL
[15] = first compound 0.02 µg/mL, partner 1.073 µg/mL
[16] = first compound 0.02 µg/mL, partner 2.145 µg/mL
[17] = first compound 0.02 µg/mL, partner 4.29 µg/mL
[18] = first compound 0.026 µg/mL, partner 1.25 µg/mL
[19] = first compound 0.026 µg/mL, partner 2.5 µg/mL
[20] = first compound 0.026 µg/mL, partner 5 µg/mL
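Wherever Bliss interaction score (quartile over a dose matrix) is given: first quartile when negative (synergy) and third quartile when positive (antagonism).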

| Compound | Bliss interaction score (S. aureus DSM 20231) | Bliss interaction score (B. subtilis 168) | Bliss interaction score (S. aureus Newman) | Bliss interaction score (S. pneumoniae D39V [1]) | fitness (S. pneumoniae D39V [2]; [3]) | fitness (S. pneumoniae D39V [2]; [4]) | fitness (S. pneumoniae D39V [2]; [5]) | fitness (S. pneumoniae D39V [2]; [6]) | fitness (S. pneumoniae D39V [2]; [7]) | fitness (S. pneumoniae D39V [2]; [8]) | fitness (S. pneumoniae D39V [2]; [9]) | fitness (S. pneumoniae D39V [2]; [10]) | fitness (S. pneumoniae D39V [2]; [11]) | fitness (S. pneumoniae D39V [2]; [12]) | fitness (S. pneumoniae D39V [2]; [13]) | fitness (S. pneumoniae D39V [2]; [14]) | fitness (S. pneumoniae D39V [2]; [15]) | fitness (S. pneumoniae D39V [2]; [16]) | fitness (S. pneumoniae D39V [2]; [17]) | fitness (S. pneumoniae D39V [2]; [18]) | fitness (S. pneumoniae D39V [2]; [19]) | fitness (S. pneumoniae D39V [2]; [20]) | fitness (S. pneumoniae D39V [2]; first compound 0.005 µg/mL, partner 0.01 µg/mL) | fitness (S. pneumoniae D39V [2]; first compound 0.005 µg/mL, partner 0.02 µg/mL) | fitness (S. pneumoniae D39V [2]; first compound 0.005 µg/mL, partner 0.04 µg/mL) | fitness (S. pneumoniae D39V [2]; first compound 0.0065 µg/mL, partner 0.01 µg/mL) | fitness (S. pneumoniae D39V [2]; first compound 0.0065 µg/mL, partner 0.02 µg/mL) | fitness (S. pneumoniae D39V [2]; first compound 0.0065 µg/mL, partner 0.04 µg/mL) | fitness (S. pneumoniae D39V [2]; first compound 0.01 µg/mL, partner 0.01 µg/mL) | fitness (S. pneumoniae D39V [2]; first compound 0.01 µg/mL, partner 0.02 µg/mL) | fitness (S. pneumoniae D39V [2]; first compound 0.01 µg/mL, partner 0.04 µg/mL) | fitness (S. pneumoniae D39V [2]; first compound 0.013 µg/mL, partner 0.01 µg/mL) | fitness (S. pneumoniae D39V [2]; first compound 0.013 µg/mL, partner 0.02 µg/mL) | fitness (S. pneumoniae D39V [2]; first compound 0.013 µg/mL, partner 0.04 µg/mL) | fitness (S. pneumoniae D39V [2]; first compound 0.02 µg/mL, partner 0.01 µg/mL) | fitness (S. pneumoniae D39V [2]; first compound 0.02 µg/mL, partner 0.02 µg/mL) | fitness (S. pneumoniae D39V [2]; first compound 0.02 µg/mL, partner 0.04 µg/mL) | fitness (S. pneumoniae D39V [2]; first compound 0.026 µg/mL, partner 0.01 µg/mL) | fitness (S. pneumoniae D39V [2]; first compound 0.026 µg/mL, partner 0.02 µg/mL) | fitness (S. pneumoniae D39V [2]; first compound 0.026 µg/mL, partner 0.04 µg/mL) |
| --- | --- | --- | --- | --- | --- | --- | --- | --- | --- | --- | --- | --- | --- | --- | --- | --- | --- | --- | --- | --- | --- | --- | --- | --- | --- | --- | --- | --- | --- | --- | --- | --- | --- | --- | --- | --- | --- | --- | --- | --- |
| C[C@@H](O)[C@H]1C(=O)N2C(C(=O)O)=C(SCCNC=N)C[C@H]12 [Imipenem] + Cc1ncc([N+](=O)[O-])n1CCO [Metronidazole] | 0.0365 | 0.0502 | -0.0547 | 0.0768 | 0.961 | 0.872 | 0.908 | 0.991 | 0.988 | 0.99 | 0.945 | 0.737 | 0.903 | 0.995 | ≥ 1 | 0.969 | 0.919 | 0.886 | 0.903 | 0.985 | 0.984 | 0.961 | – | – | – | – | – | – | – | – | – | – | – | – | – | – | – | – | – | – |
| C[C@@H](O)[C@H]1C(=O)N2C(C(=O)O)=C(SCCNC=N)C[C@H]12 [Imipenem] + Cc1onc(-c2ccccc2)c1C(=O)N[C@@H]1C(=O)N2[C@@H]1SC(C)(C)[C@@H]2C(=O)O [Oxacillin] | -0.0527 | -0.048 | 0.0474 | 0.0736 | – | – | – | – | – | – | – | – | – | – | – | – | – | – | – | – | – | – | 0.963 | 0.92 | 0.524 | 0.968 | 0.845 | 0.0658 | 0.983 | 0.933 | 0.511 | 0.996 | 0.902 | 0.171 | 0.95 | 0.905 | 0.468 | 0.956 | 0.812 | 0.109 |
| C[C@@H](O)[C@H]1C(=O)N2C(C(=O)O)=C(SCCNC=N)C[C@H]12 [Imipenem] + Clc1ccc(COC(Cn2ccnc2)c2ccc(Cl)cc2Cl)c(Cl)c1 [Miconazole] | 0.0412 | -0.0815 | -0.0307 | 0.0759 | ≥ 1 | ≥ 1 | 0.955 | 0.877 | 0.892 | 0.908 | ≥ 1 | 0.998 | 0.95 | 0.869 | 0.907 | 0.947 | ≥ 1 | 0.99 | 0.882 | 0.72 | 0.761 | 0.886 | – | – | – | – | – | – | – | – | – | – | – | – | – | – | – | – | – | – |
